Laboratory results published in paper PMC5681922, “Systemic Responses of Multidrug-Resistant Pseudomonas aeruginosa and Acinetobacter baumannii Following Exposure to the Antimicrobial Peptide Cathelicidin-BF Imply Multiple Intracellular Targets” (Frontiers in Cellular and Infection Microbiology, 2017).
Like-named read-outs stand apart in the source and are kept apart here. No end group written: not given here.

Test system: P. aeruginosa 1409
[1] = treated vs untreated, iTRAQ, cathelicidin-BF change not categorized as differentially expressed

KFFRKLKKSVKKRAKEFFKKPRVIGVSIPF [cathelicidin-BF]
Pa-Ca/Pa-C (iTRAQ abundance ratio Pa-Cathelicidin/Pa-Control of protein Q9HY45 (GN=PA3575)): 1.067
Pa-Ca/Pa-C (iTRAQ abundance ratio Pa-Cathelicidin/Pa-Control of protein Q9HY53 (GN=PA3564)): 0.9999
Pa-Ca/Pa-C (iTRAQ abundance ratio Pa-Cathelicidin/Pa-Control of protein Q9HYC5 (GN=PA3484)): 1.215
Pa-Ca/Pa-C (iTRAQ abundance ratio Pa-Cathelicidin/Pa-Control of protein Q9HYK2 (GN=PA3402)): 1.136
Pa-Ca/Pa-C (iTRAQ abundance ratio Pa-Cathelicidin/Pa-Control of protein Q9HYU6 (GN=PA3297)): 0.9414
Pa-Ca/Pa-C (iTRAQ abundance ratio Pa-Cathelicidin/Pa-Control of protein Q9HYV7 (GN=PA3286)): 0.9022
Pa-Ca/Pa-C (iTRAQ abundance ratio Pa-Cathelicidin/Pa-Control of protein Q9HYZ3 (GN=apeB)): 1.0565
Pa-Ca/Pa-C (iTRAQ abundance ratio Pa-Cathelicidin/Pa-Control of protein Q9HZD8 (GN=PA3070)): 0.9912
Pa-Ca/Pa-C (iTRAQ abundance ratio Pa-Cathelicidin/Pa-Control of protein Q9HZF4 (GN=PA3054)): 0.9528
Pa-Ca/Pa-C (iTRAQ abundance ratio Pa-Cathelicidin/Pa-Control of protein Q9HZG0 (GN=rlmL)): 0.9995
Pa-Ca/Pa-C (iTRAQ abundance ratio Pa-Cathelicidin/Pa-Control of protein Q9HZG4 (GN=PA3044)): 1.123
Pa-Ca/Pa-C (iTRAQ abundance ratio Pa-Cathelicidin/Pa-Control of protein Q9HZM6 (GN=ptpA)): 0.8326
Pa-Ca/Pa-C (iTRAQ abundance ratio Pa-Cathelicidin/Pa-Control of protein Q9HZN0 (GN=PA2974)): 1.056
Pa-Ca/Pa-C (iTRAQ abundance ratio Pa-Cathelicidin/Pa-Control of protein Q9HZY0 (GN=mttC)): 1.0109
Pa-Ca/Pa-C (iTRAQ abundance ratio Pa-Cathelicidin/Pa-Control of protein Q9I0F5 (GN=PA2683)): 1.0558
Pa-Ca/Pa-C (iTRAQ abundance ratio Pa-Cathelicidin/Pa-Control of protein Q9I0I2 (GN=PA2656)): 1.043
Pa-Ca/Pa-C (iTRAQ abundance ratio Pa-Cathelicidin/Pa-Control of protein Q9I0Q7 (GN=kynA)): 0.9342
Pa-Ca/Pa-C (iTRAQ abundance ratio Pa-Cathelicidin/Pa-Control of protein Q9I0R5 (GN=PA2571)): 0.9216
Pa-Ca/Pa-C (iTRAQ abundance ratio Pa-Cathelicidin/Pa-Control of protein Q9I0Z9 (GN=PA2483)): 0.8854
Pa-Ca/Pa-C (iTRAQ abundance ratio Pa-Cathelicidin/Pa-Control of protein Q9I1H9 (GN=PA2296)): 0.9095
Pa-Ca/Pa-C (iTRAQ abundance ratio Pa-Cathelicidin/Pa-Control of protein Q9I1I4 (GN=PA2291)): 1.111
Pa-Ca/Pa-C (iTRAQ abundance ratio Pa-Cathelicidin/Pa-Control of protein Q9I1M1 (GN=bkdA2)): 1.005
Pa-Ca/Pa-C (iTRAQ abundance ratio Pa-Cathelicidin/Pa-Control of protein Q9I2G3 (GN=PA1941)): 0.9926
Pa-Ca/Pa-C (iTRAQ abundance ratio Pa-Cathelicidin/Pa-Control of protein Q9I2R3 (GN=PA1832)): 0.9008
Pa-Ca/Pa-C (iTRAQ abundance ratio Pa-Cathelicidin/Pa-Control of protein Q9I2T1 (GN=gloB)): 0.964
Pa-Ca/Pa-C (iTRAQ abundance ratio Pa-Cathelicidin/Pa-Control of protein Q9I2Y1 (GN=pabB)): 0.998
Pa-Ca/Pa-C (iTRAQ abundance ratio Pa-Cathelicidin/Pa-Control of protein Q9I3F3 (GN=tusA)): 0.8155
Pa-Ca/Pa-C (iTRAQ abundance ratio Pa-Cathelicidin/Pa-Control of protein Q9I3J6 (GN=PA1517)): 1.049
Pa-Ca/Pa-C (iTRAQ abundance ratio Pa-Cathelicidin/Pa-Control of protein Q9I3L0 (GN=gcl)): 0.9901
Pa-Ca/Pa-C (iTRAQ abundance ratio Pa-Cathelicidin/Pa-Control of protein Q9I4B6 (GN=PA1222)): 0.8647
Pa-Ca/Pa-C (iTRAQ abundance ratio Pa-Cathelicidin/Pa-Control of protein Q9I4H9 (GN=PA1158)): 1.038
Pa-Ca/Pa-C (iTRAQ abundance ratio Pa-Cathelicidin/Pa-Control of protein Q9I4N6 (GN=fliS)): 1.132
Pa-Ca/Pa-C (iTRAQ abundance ratio Pa-Cathelicidin/Pa-Control of protein Q9I4N9 (GN=PA1090)): 1.038
Pa-Ca/Pa-C (iTRAQ abundance ratio Pa-Cathelicidin/Pa-Control of protein Q9I4R3 (GN=PA1061)): 0.9798
Pa-Ca/Pa-C (iTRAQ abundance ratio Pa-Cathelicidin/Pa-Control of protein Q9I5M1 (GN=migA)): 0.9698
Pa-Ca/Pa-C (iTRAQ abundance ratio Pa-Cathelicidin/Pa-Control of protein Q9I5U7 (GN=apaH)): 1.014
Pa-Ca/Pa-C (iTRAQ abundance ratio Pa-Cathelicidin/Pa-Control of protein Q9I5V3 (GN=cca)): 0.7612
Pa-Ca/Pa-C (iTRAQ abundance ratio Pa-Cathelicidin/Pa-Control of protein Q9I6B3 (GN=trmB)): 1.011
Pa-Ca/Pa-C (iTRAQ abundance ratio Pa-Cathelicidin/Pa-Control of protein Q9I7A7 (GN=PA0020)): 1.051
Pa-Ca/Pa-C (iTRAQ abundance ratio Pa-Cathelicidin/Pa-Control of protein Q9I022 (GN=PA2821)): 0.7721
Pa-Ca/Pa-C (iTRAQ abundance ratio Pa-Cathelicidin/Pa-Control of protein Q9I164 (GN=PA2417)): 1.295
Pa-Ca/Pa-C (iTRAQ abundance ratio Pa-Cathelicidin/Pa-Control of protein Q9I233 (GN=PA2082)): 0.8885
Pa-Ca/Pa-C (iTRAQ abundance ratio Pa-Cathelicidin/Pa-Control of protein Q9I300 (GN=PA1737)): 1.149
Pa-Ca/Pa-C (iTRAQ abundance ratio Pa-Cathelicidin/Pa-Control of protein Q9I342 (GN=mtnB)): 1.093
Pa-Ca/Pa-C (iTRAQ abundance ratio Pa-Cathelicidin/Pa-Control of protein Q9I468 (GN=cobC)): 0.7767
Pa-Ca/Pa-C (iTRAQ abundance ratio Pa-Cathelicidin/Pa-Control of protein Q9I538 (GN=PA0919)): 0.9631
Pa-Ca/Pa-C (iTRAQ abundance ratio Pa-Cathelicidin/Pa-Control of protein Q9I655 (GN=creB)): 0.9495
Pa-Ca/Pa-C (iTRAQ abundance ratio Pa-Cathelicidin/Pa-Control of protein Q9I656 (GN=PA0462)): 1.049
Pa-Ca/Pa-C (iTRAQ abundance ratio Pa-Cathelicidin/Pa-Control of protein Q9I673 (GN=PA0444)): 0.9127
Pa-Ca/Pa-C (iTRAQ abundance ratio Pa-Cathelicidin/Pa-Control of protein Q9I688 (GN=PA0429)): 1.007
Pa-Ca/Pa-C (iTRAQ abundance ratio Pa-Cathelicidin/Pa-Control of protein Q9I700 (GN=bauA)): 0.9294
Pa-Ca/Pa-C (iTRAQ abundance ratio Pa-Cathelicidin/Pa-Control of protein Q9X6V8 (GN=PA3998)): 1.122
Pa-Ca/Pa-C (iTRAQ abundance ratio Pa-Cathelicidin/Pa-Control of protein Q51426 (GN=ruvB)): 1.14
expression of protein Q9HTV3 (3-octaprenyl-4-hydroxybenzoate carboxy-lyase) [1]: downregulated
expression of protein Q9I298 (putative 3-methylglutaconyl-ConA hydratase) [1]: downregulated
expression of protein Q9I5V3 (multifunctional CCA protein) (treated vs untreated, iTRAQ, levofloxacin change not categorized as differentially expressed): downregulated
